From patent US6589974B1, “Pyrazolyl benzyl ether derivatives containing a fluoromethoxyimino group and use thereof as pesticides” (Bayer Aktiengesellschaft, priority 1999, dated 2003) come the findings set out here.

Data set [1] is described as follows: logP determination by HPLC (EEC Directive 79/831 Annex V.A8). As to conditions: for logP: HPLC, gradient method, acetonitrile/0.1% aqueous phosphoric acid. The data set is classed as physicochemical. The procedure:
The logP values were determined in accordance with EEC Directive 79/831 Annex V.A8 by HPLC (gradient method, acetonitrile/0.1% aqueous phosphoric acid).

Data set [2] relates to Puccinia recondita. In words: Puccinia Test (wheat)/protective. The data set is classed as in vivo. As to conditions: protective, application rate 250 g/ha, evaluation 10 days after inoculation. The procedure: Puccinia Test (wheat)/protective Solvent: 25 parts by weight of N,N-dimethylacetamide Emulsifier: 0.6 part by weight of alkylaryl polyglycol ether To produce a suitable preparation of active compound, 1 part by weight of active compound is mixed with the stated amounts of solvent and emulsifier, and the concentrate is diluted with water to the desired concentration. To test for protective activity, young plants are sprayed with the preparation of active compound at the stated application rate. After the spray coating has dried on, the plants are sprayed with a conidia suspension of Puccinia recondita. The plants remain in an incubation cabin at 20° C. and 100% relative atmospheric humidity for 48 hours. The plants are then placed in a greenhouse at a temperature of about 20° C. and a relative atmospheric humidity of 80% to promote the development of rust pustules.

Data set [3] has as its system green peach aphid (Myzus persicae). In words: Myzus Test. In kind it is in vivo. As to conditions: broad bean seedlings (Vicia faba) dipped, concentration of active compound 1000 ppm. On the procedure:
Myzus Test Solvent: 30 parts by weight of acetone Emulsifier: 1 part by weight of alkylaryl polyglycol ether To produce a suitable preparation of active compound, 1 part by weight of active compound is mixed with the stated amounts of solvent and emulsifier, […], and the concentrate is diluted with emulsifier-containing water to the desired concentrations. Broad bean seedlings (Vicia faba) infested by the green peach aphid (Myzus persicae) are dipped into a preparation of active compound of the desired concentration and placed in a dish made of plastic. After the desired period of time, the kill in % is determined. 100% means that all animals have been killed; 0% means that none of the animals have been killed.

Data set [4] relates to larvae of the mustard beetle (Phaedon cochleariae). The data set can be described thus: Phaedon Larvae Test. The settings on record: cabbage leaves (Brassica oleracea) dipped, concentration of active compound 1000 ppm. The data set is classed as in vivo. On the procedure:
Phaedon Larvae Test Solvent: 30 parts by weight of acetone Emulsifier: 1 part by weight of alkylaryl polyglycol ether To produce a suitable preparation of active compound, 1 part by weight of active compound is mixed with the stated amounts of solvent and emulsifier, and the concentrate is diluted with emulsifier-containing water to the desired concentration. Cabbage leaves (Brassica oleracea) are treated by being dipped into the preparation of active compound of the desired concentration and are populated with larvae of the mustard beetle (Phaedon cochleariae) while the leaves are still moist. After the desired period of time, the kill in % is determined. 100% means that all beetle larvae have been killed; 0% means that none of the beetle larvae have been killed.

Data set [5] concerns Erysiphe graminis f.sp. hordei. The data set can be described thus: Erysiphe Test (barley)/protective. In kind it is in vivo. As to conditions: protective, application rate 250 g/ha, evaluation 7 days after inoculation. On the procedure:
Erysiphe Test (barley)/protective Solvent: 25 parts by weight of N,N-dimethylacetamide Emulsifier: 0.6 part by weight of alkylaryl polyglycol ether To produce a suitable preparation of active compound, 1 part by weight of active compound is mixed with the stated amounts of solvent and emulsifier, and the concentrate is diluted with water to the desired concentration. To test for protective activity, young plants are sprayed with the preparation of active compound at the stated application rate. After the spray coating has dried on, the plants are dusted with spores of Erysiphe graminis f.sp. hordei. The plants are placed in a greenhouse at a temperature of about 20° C. and a relative atmospheric humidity of about 80% to promote the development of mildew pustules.

Data set [6] relates to Puccinia recondita. In words: Puccinia Test (wheat)/curative. The settings on record: curative, application rate 250 g/ha, evaluation 10 days after inoculation. The data set is classed as in vivo. On the procedure:
Puccinia Test (wheat)/curative Solvent: 25 parts by weight of N,N-dimethylacetamide Emulsifier: 0.6 part by weight of alkylaryl polyglycol ether To produce a suitable preparation of active compound, 1 part by weight of active compound is mixed with the stated amounts of solvent and emulsifier, and the concentrate is diluted with water to the desired concentration. To test for curative activity, young plants are sprayed with a conidia suspension of Puccinia recondita. The plants remain in an incubation cabin at 20° C. and 100% relative atmospheric humidity for 48 hours. The plants are then sprayed with the preparation of active compound at the stated application rate. The plants are placed in a greenhouse at a temperature of about 20° C. and a relative atmospheric humidity of about 80% to promote the development of rust pustules.

A value given as a limit tells only on which side of the number the result lay.

Regarding `COC(=O)C(=NOCF)c1ccccc1COc1ccn(-c2ccc(Cl)cc2)n1` [Example 1, methyl 2-[2-({[1-(4-chlorophenyl)-1H-pyrazol-3-yl]oxy}methyl)phenyl]-2-[(fluoromethoxy)imino]acetate], the chromatographic logP (in general, lipophilicity estimated from chromatographic retention) in data set [1] turned out to be 3.86. Further, in the data set on Puccinia recondita [2], the efficacy is no less than 98%. Also, the kill rate in data set [3] is recorded as 95%; in data set [4], 100%.
In the case of `CNC(=O)C(=NOCF)c1ccccc1COc1ccn(-c2ccc(Cl)cc2)n1` [Example 2, 2-[2-({[1-(4-chlorophenyl)-1H-pyrazol-3-yl]oxy}methyl)phenyl]-2-[(fluoromethoxy)imino]-N-methylacetamide], the chromatographic logP in data set [1] turned out to be 3.3. Also, the efficacy (in data set [5]; with Puccinia recondita [6]) was no less than 98% in each case.
On to `CNC(=O)C(=NOCF)c1ccccc1OCc1ccn(-c2ccc(F)cc2)n1` [Example 3], for which the logP (usually the decadic logarithm of the partition coefficient of the neutral form, usually between octanol and water) in data set [1] is reported as 2.91.
The same measure, in the same setting: the value for `COC(=O)C(=NOCF)c1ccccc1OCc1ccn(-c2ccc(C(C)C)cc2)n1` [Example 4] was 4.38.
The same measure, in the same setting: the value for `CNC(=O)C(=NOCF)c1ccccc1OCc1ccn(-c2cccc(Br)c2)n1` [Example 5] was 3.39.
The same measure, in the same setting: the value for `CNC(=O)C(=NOCF)c1ccccc1OCc1ccn(-c2ccc(Br)cc2)n1` [Example 6] was 3.4.
For `CNC(=O)C(=NOCF)c1ccccc1OCc1ccn(-c2cc(Cl)cc(Cl)c2)n1` [Example 7], the lipophilicity (logP) in data set [1] worked out at 3.93.
The same measure, in the same setting: the value for `COC(=O)C(=NOCF)c1ccccc1OCc1ccn(-c2ccccc2Cl)n1` [Example 8] was 3.53; that for `COC(=O)C(=NOCF)c1ccccc1OCc1ccn(-c2ccc(C#N)cc2)n1` [Example 9] was 3.18.
Still for that read-out and setting: the value for `COC(=O)C(=NOCF)c1ccccc1OCc1ccn(-c2ccc(C)cc2)n1` [Example 10] was 3.74; that for `COC(=O)C(=NOCF)c1ccccc1OCc1ccn(-c2ccc(Cl)cc2Cl)n1` [Example 11] was 4.09; that for `COC(=O)C(=NOCF)c1ccccc1OCc1ccn(-c2ccccc2Br)n1` [Example 12] was 3.54.
The same measure, in the same setting: the same measure for `COC(=O)C(=NOCF)c1ccccc1OCc1ccn(-c2ccc(Br)cc2)n1` [Example 13]: 3.98.
Take `COC(=O)C(=NOCF)c1ccccc1OCc1ccn(-c2ccccc2)n1` [Example 14]: the logP in data set [1] is given as 3.4.
Same read-out and setting: the same measure for `COC(=O)C(=NOCF)c1ccccc1OCc1ccn(-c2cc(Cl)cc(Cl)c2)n1` [Example 15]: 4.52; for `COC(=O)C(=NOCF)c1ccccc1OCc1ccn(-c2cccc(Br)c2)n1` [Example 16]: 3.98; for `COC(=O)C(=NOCF)c1ccccc1OCc1ccn(-c2ccc(F)cc2)n1` [Example 17]: 3.47.
The same measure, in the same setting: the same measure for `CNC(=O)C(=NOCF)c1ccccc1OCc1ccn(-c2ccccc2)n1` [Example 18]: 2.83; for `CNC(=O)C(=NOCF)c1ccccc1OCc1ccn(-c2ccc(Cl)cc2Cl)n1` [Example 19]: 3.5.
On the same count and under the same terms, the value for `COC(=O)C(=NOCF)c1ccccc1OCc1ccn(-c2ccc(C(C)(C)C)cc2)n1` [Example 21] was 4.63.
As to `CNC(=O)C(=NOCF)c1ccccc1OCc1ccn(-c2ccccc2Cl)n1` [Example 22], the lipophilicity (logP) in data set [1] stood at 2.96.
`CNC(=O)C(=NOCF)c1ccccc1OCc1ccn(-c2ccc(C(C)(C)C)cc2)n1` [Example 23] came in with a logP in data set [1] of 4.04.
Still for that read-out and setting: the same measure for `COC(=O)C(=NOCF)c1ccccc1OCc1ccn(-c2ccccc2F)n1` [Example 25]: 3.51.
As for `COC(=O)C(=NOCF)c1ccccc1OCc1ccn(-c2ccc(F)cc2F)n1` [Example 26], the logP in data set [1] was 3.52.
The compound `COC(=O)C(=NOCF)c1ccccc1OCc1ccn(-c2cccc(Cl)c2Cl)n1` [Example 27] had a logP in data set [1] of 3.9.
On the same count and under the same terms, the same measure for `COC(=O)C(=NOCF)c1ccccc1OCc1ccn(-c2ccc(C)c(C)c2)n1` [Example 28]: 3.92; for `COC(=O)C(=NOCF)c1ccccc1OCc1ccn(-c2cc(Cl)ccc2Cl)n1` [Example 29]: 4.5; for `COC(=O)C(=NOCF)c1ccccc1OCc1ccn(-c2cccc(C)c2)n1` [Example 30]: 3.73.
As to `CNC(=O)C(=NOCF)c1ccccc1OCc1ccn(-c2cccc(C)c2)n1` [Example 31], the log partition coefficient (logP) in data set [1] is 3.15.
On the same count and under the same terms, the same measure for `CNC(=O)C(=NOCF)c1ccccc1OCc1ccn(-c2ccccc2F)n1` [Example 32]: 2.93.
The same measure, in the same setting: the value for `CNC(=O)C(=NOCF)c1ccccc1OCc1ccn(-c2ccc(F)cc2F)n1` [Example 33] was 3.02.
Still for that read-out and setting: the value for `CNC(=O)C(=NOCF)c1ccccc1OCc1ccn(-c2cccc(Cl)c2Cl)n1` [Example 34] was 3.31.
For `CNC(=O)C(=NOCF)c1ccccc1OCc1ccn(-c2cc(Cl)ccc2Cl)n1` [Example 36], the logP in data set [1] is given as 3.43.
Same read-out and setting: the value for `COC(=O)C(=NOCF)c1ccccc1OCc1ccn(-c2cccc(Cl)c2)n1` [Example 37] was 3.88; that for `CNC(=O)C(=NOCF)c1ccccc1OCc1ccn(-c2ccc(C(C)C)cc2)n1` [Example 38] was 3.83; that for `CNC(=O)C(=NOCF)c1ccccc1OCc1ccn(-c2ccc(C)cc2)n1` [Example 41] was 3.14.
The same measure, in the same setting: the same measure for `CNC(=O)C(=NOCF)c1ccccc1OCc1ccn(-c2ccc(C#N)cc2)n1` [Example 42]: 2.64; for `CNC(=O)C(=NOCF)c1ccccc1OCc1ccn(-c2cccc(Cl)c2)n1` [Example 43]: 3.3.
